From patent US11752117B2, “Methods and compositions for diagnosing and treating glaucoma” (priority 2017, dated 2023)
Where “and” joins values, the source holds several entries; their conditions need not be identical. Equal entries are not always repeated.

How the values were obtained:
glaucoma patients = assay: Extended twice-daily 0.4% tolbutamide treatment, IOP of glaucoma patients; format: in vivo, human
Method: FIG. 5 depicts, in accordance with embodiments herein, long-term effect of 0.4% tolbutamide treatment on IOP of a human subject. […] The bottles were color-coded and the patient was not aware of which bottle contained the drug and which contained the vehicle. The patient and the technician measuring the patient's IOP was not aware of which bottle contained the drug and which contained the vehicle
On days 1 through 5, IOP was measured at 8:00 A.M., 1 drop of 0.4% Tolbutamide suspended in buffered PBS (pH 6.7) was instilled to the right eye and IOP measured at the indicated times. A second drop was administered at 10:00 PM. All measurements and drug administrations were done in the hospital. The bottles were color-coded and the patient was not aware of which bottle contained the drug and which contained the vehicle. […]
b. Effect of 0.4% tolbutamide on human subjects for an extended time. To determine whether longer-term treatment with tolbutamide lowered TOP without any significant side effects, […] patient was treated with one drop of 0.4% tolbutamide twice daily (FIGS. 5-7) as shown in the figures. Vials containing drug and vehicle were color-coded by the manufacturing facility; the patient, the nurse and the investigator were not aware which vial contained the drug and which vial contained the vehicle.
On days 1 through 5, IOP was measured at 8:00 A.M., 1 drop of 0.4% Tolbutamide suspended in buffered PBS (pH 6.7) was instilled to the right eye and IOP measured at the indicated times. A second drop was administered at 10:00 PM. All measurements and drug administrations were done in the hospital, since the patient was admitted for an unrelated condition. […]

rabbits = assay: Effect of KATP channel blockers and openers on intraocular pressure in rabbits; format: in vivo; settings: 800 μg of blockers, within 1 hour
Excerpt: Tolbutamide, a well-known and world-wide clinically approved drug to treat Type II diabetes, was used as the prototype blocker of the KATP channel. […] Tolbutamide solution decreased IOP not only in glaucomatous patients, but also in patients with elevated IOP after cataract surgery.

[1] = tested on: ocular hypertensive patient; assay: Fluorophotometry of aqueous humor inflow and outflow facility; format: in vivo, human
Method: Thus, they investigated whether one drop of […] tolbutamide would affect aqueous dynamics using fluorophotometry to measure aqueous production and outflow.
Fluorophotometry. To define the mechanism of action of tolbutamide, measurements of aqueous dynamics were done on patient 2 (See FIG. 6). For this study TOP and rate of aqueous formation were measured at 9:00 A.M. The patient was asked to apply one drop of drug to the right eye at 9:15 A.M. and one at 10:00 P.M. for 3 days. On the morning of the fourth day TOP and rate of aqueous formation were again measured.
Facility of Outflow (C) was calculated after Goldman:
[formula] where IOPt is the intraocular pressure in mmHg at the time the rate of inflow is measured. Episcleral pressure for this patient was estimated at 9 mmHg.

[2] = tested on: normal cynomologus monkeys; assay: Effect of tolbutamide on IOP of normal cynomologus monkeys; format: in vivo; settings: for IOP 1 hour post-treatment OD(treated): ketamine anesthesia
Method: Effect of Tolbutamide on TOP of Normal Cynomologus Monkeys: Formulations of the KA channel inhibitor tolbutamidewere tested as a suspension and as a solution for its ability to lower intraocular pressure in normal cynomologus monkeys. For the suspension, 0.4% tolbutamide was prepared in NaCl/borate buffer (0.8 mg NaCl, 1.0 mg boric acid, pH 7.2, water to 1 ml; for the solution, 0.4% tolbutamide was solubilized in 0.25 M NaOH and added to 0.4% hypromellose (HPMC) and the pH adjusted to 6.7. Tonicity was adjusted to 300 mOSm with NaCl and preserved with 0.001% thimerosal. The suspension and solution were tested as follows: Monkeys were anesthetized with ketamine hydrochloride and the baseline IOP determined. One drop of drug was administered to the right eye and the IOP determined 1 hour later, while the animals were still under anesthesia; the left eye served as a control. Two animals for each treatment were used. The decrease in IOP in the untreated eye is the result of anesthesia.

[3] = biological target: T1, sulfonylurea receptor of RIN-m5F cells (Rattus norvegicus, UniProt Q09429); assay: 3H-glibenclamide displacement, RIN-m5F cells; format: binding; settings: compared with bovine TM cells
T1 construct: displacement of ^3H-glibenclamide by tolbutamide in bovine trabecular meshwork cells and RIN-m5F cells; host or cells: RIN-m5F rat insulinoma cells
Excerpt: FIG. 2 depicts, in accordance with embodiments herein, displacement of ^3H-glibenclamide bound to trabecular meshwork cells (green) and RIN-m5F cells (red) by tolbutamide.

[4] = tested on: patients with elevated IOP; assay: Effect of one drop of 0.4% tolbutamide on IOP in human subjects; format: in vivo; settings: for effect on IOP: glaucomatous patients and patients with elevated IOP after cataract surgery (lens extraction)
Method: a. Effect of 1 drop of 0.4% tolbutamide. Three patients with elevated TOP, due to exfoliative glaucoma, to POAG and to the increase in TOP that occurs in some patients following lens extraction, were treated with one drop of 0.4% tolbutamide solution. TOP was measured at “0” time and at one hour intervals for 5 hours (when possible) by a nurse while the patient was in the hospital.

[5] = Patient 2, 0.4% in PBS pH 6.7 twice daily, Day 1 6:30 PM
[6] = Patient 2, 0.4% in PBS pH 6.7 twice daily, Day 2 4:00 PM
[7] = Patient 2, 0.4% in PBS pH 6.7 twice daily, Day 2 8:00 AM
[8] = Patient 2, 0.4% in PBS pH 6.7 twice daily, Day 2 8:00 PM
[9] = Patient 2, 0.4% in PBS pH 6.7 twice daily, Day 3 4:00 PM
[10] = Patient 2, 0.4% in PBS pH 6.7 twice daily, Day 3 8:00 AM
[11] = Patient 2, 0.4% in PBS pH 6.7 twice daily, Day 3 8:00 PM
[12] = Patient 2, 0.4% in PBS pH 6.7 twice daily, Day 4 4:00 PM
[13] = Patient 2, 0.4% in PBS pH 6.7 twice daily, Day 4 8:00 AM
[14] = Patient 2, 0.4% in PBS pH 6.7 twice daily, Day 4 8:00 PM
[15] = Patient 2, 0.4% in PBS pH 6.7 twice daily, Day 5 2:00 PM
[16] = Patient 2, 0.4% in PBS pH 6.7 twice daily, Day 5 8:00 AM
[17] = after 3 days, one drop of 0.5% solution to the eye twice daily

T1 sequence (Q09429 whole entry): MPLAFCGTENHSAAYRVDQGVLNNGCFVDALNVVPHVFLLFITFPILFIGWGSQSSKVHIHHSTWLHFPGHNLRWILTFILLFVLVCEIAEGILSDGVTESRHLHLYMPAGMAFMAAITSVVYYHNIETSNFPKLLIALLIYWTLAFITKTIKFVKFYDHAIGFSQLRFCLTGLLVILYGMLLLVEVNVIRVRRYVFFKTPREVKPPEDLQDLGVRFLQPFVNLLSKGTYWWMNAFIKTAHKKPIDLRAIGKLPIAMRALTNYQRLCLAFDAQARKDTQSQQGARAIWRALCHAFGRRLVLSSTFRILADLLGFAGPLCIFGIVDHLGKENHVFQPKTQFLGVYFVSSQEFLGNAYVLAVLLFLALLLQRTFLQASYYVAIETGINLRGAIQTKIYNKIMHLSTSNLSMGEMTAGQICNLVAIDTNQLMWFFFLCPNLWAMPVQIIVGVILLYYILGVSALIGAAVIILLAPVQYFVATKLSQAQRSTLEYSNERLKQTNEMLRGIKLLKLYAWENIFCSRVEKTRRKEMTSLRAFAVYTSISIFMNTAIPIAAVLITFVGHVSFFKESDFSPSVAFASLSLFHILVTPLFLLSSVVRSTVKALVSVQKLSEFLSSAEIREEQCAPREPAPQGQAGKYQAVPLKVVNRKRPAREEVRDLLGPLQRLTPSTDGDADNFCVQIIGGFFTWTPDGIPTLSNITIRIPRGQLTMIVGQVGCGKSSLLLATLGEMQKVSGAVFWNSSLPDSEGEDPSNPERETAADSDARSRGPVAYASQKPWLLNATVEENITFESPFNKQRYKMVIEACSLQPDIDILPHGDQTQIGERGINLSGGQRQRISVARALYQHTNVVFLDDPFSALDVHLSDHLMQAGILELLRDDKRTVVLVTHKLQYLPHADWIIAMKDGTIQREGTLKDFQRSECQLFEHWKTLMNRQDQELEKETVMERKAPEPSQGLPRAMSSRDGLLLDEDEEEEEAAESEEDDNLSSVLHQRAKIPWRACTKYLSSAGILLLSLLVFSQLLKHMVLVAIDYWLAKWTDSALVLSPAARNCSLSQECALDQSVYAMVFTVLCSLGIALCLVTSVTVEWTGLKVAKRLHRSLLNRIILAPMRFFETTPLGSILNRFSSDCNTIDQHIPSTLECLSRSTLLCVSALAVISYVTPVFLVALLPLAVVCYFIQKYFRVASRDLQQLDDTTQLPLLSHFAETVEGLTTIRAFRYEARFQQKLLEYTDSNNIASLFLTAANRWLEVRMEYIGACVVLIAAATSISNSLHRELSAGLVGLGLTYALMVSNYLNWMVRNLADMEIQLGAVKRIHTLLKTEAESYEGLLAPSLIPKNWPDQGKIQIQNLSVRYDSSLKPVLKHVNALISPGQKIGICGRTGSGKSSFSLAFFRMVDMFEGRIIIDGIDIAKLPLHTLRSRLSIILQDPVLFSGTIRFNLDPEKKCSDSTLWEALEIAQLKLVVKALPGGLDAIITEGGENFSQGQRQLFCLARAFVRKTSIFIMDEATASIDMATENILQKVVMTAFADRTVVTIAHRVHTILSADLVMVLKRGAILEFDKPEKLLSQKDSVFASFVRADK
T1 sequence (P70673 whole entry partner): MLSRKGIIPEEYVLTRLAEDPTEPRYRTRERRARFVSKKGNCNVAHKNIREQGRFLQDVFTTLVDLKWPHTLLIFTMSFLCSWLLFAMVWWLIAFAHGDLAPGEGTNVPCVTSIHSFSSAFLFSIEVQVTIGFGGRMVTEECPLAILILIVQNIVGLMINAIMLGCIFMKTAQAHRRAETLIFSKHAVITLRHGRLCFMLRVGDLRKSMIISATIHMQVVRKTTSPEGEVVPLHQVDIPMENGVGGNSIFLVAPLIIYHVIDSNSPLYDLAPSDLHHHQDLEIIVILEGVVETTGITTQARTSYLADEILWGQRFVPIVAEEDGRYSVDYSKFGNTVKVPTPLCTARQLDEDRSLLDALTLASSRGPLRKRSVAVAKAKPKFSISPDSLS

Structure (SMILES): CCCCNC(=O)NS(=O)(=O)c1ccc(C)cc1 [Tolbutamide, tolbutamide]
- long-term effect on IOP (glaucoma patients; Patient 1 (high IOP, no visual field loss), 0.4% suspended in PBS pH 6.7, right eye twice daily, days 1-6, first day IOP remained high): decreased significantly during the next 5 days
- IOP OD (treated) (glaucoma patients; Patient 2 (refractory to Timolol), 0.4% in PBS pH 6.7 twice daily, Day 1 6:00 PM, Day 1 4:00 PM value 31): 21 mm Hg
- IOP OD (treated) % Change (glaucoma patients; Patient 2, 0.4% in PBS pH 6.7 twice daily, Day 1 6:00 PM): −32%
- IOP OD (treated) (glaucoma patients; [5]): 18 mm Hg
- IOP OD (treated) % Change (glaucoma patients; [5]): −42%
- IOP OD (treated) (glaucoma patients; [6]): 27 mm Hg
- IOP OD (treated) % Change (glaucoma patients; [6]): −13%
- IOP OD (treated) (glaucoma patients; [7]): 16 mm Hg
- IOP OD (treated) % Change (glaucoma patients; [7]): −48%
- IOP OD (treated) (glaucoma patients; [8]): 28 mm Hg
- IOP OD (treated) % Change (glaucoma patients; [8]): −10%
- IOP OD (treated) (glaucoma patients; [9]): 22 mm Hg
- IOP OD (treated) % Change (glaucoma patients; [9]): −29%
- IOP OD (treated) (glaucoma patients; [10]): 20 mm Hg
- IOP OD (treated) % Change (glaucoma patients; [10]): −35%
- IOP OD (treated) (glaucoma patients; [11]): 21 mm Hg
- IOP OD (treated) % Change (glaucoma patients; [11]): −32%
- IOP OD (treated) (glaucoma patients; [12]): 22 mm Hg
- IOP OD (treated) % Change (glaucoma patients; [12]): −29%
- IOP OD (treated) (glaucoma patients; [13]): 18 mm Hg
- IOP OD (treated) % Change (glaucoma patients; [13]): −42%
- IOP OD (treated) (glaucoma patients; [14]): 24 mm Hg
- IOP OD (treated) % Change (glaucoma patients; [14]): −23%
- IOP OD (treated) (glaucoma patients; [15]): 23 mm Hg
- IOP OD (treated) % Change (glaucoma patients; [15]): −26%
- IOP OD (treated) (glaucoma patients; [16]): 17 mm Hg
- IOP OD (treated) % Change (glaucoma patients; [16]): −45%
- effect on IOP (glaucoma patients; glaucoma patients, 1 drop (250 μg) twice daily, 6 days of the study): decreased IOP
- effect on intraocular pressure (rabbits): decreased IOP
- increase of aqueous production ([1]; 0.4%): 150%
- increase of outflow via the trabecular meshwork-Schlemm's canal complex ([1]; 0.4%): 350%
- net outflow increase ([1]; 0.4%): 200%
- increase of aqueous formation [1, 17]: approximately 150%
- increase of outflow via the trabecular meshwork/Schlemm's canal [1, 17]: 350%
- Inflow OD Post-treatment ([1]; patient 2, one drop right eye twice daily for 3 days, morning of fourth day, Pre-Treatment 1.9): 3.0 µL/min
- IOP OD Post-treatment ([1]; patient 2, one drop right eye twice daily for 3 days, morning of fourth day, Pre-Treatment 22): 15 mmHg
- Outflow Facility OD Post-treatment ([1]; patient 2, one drop right eye twice daily for 3 days, calculated after Goldman, episcleral pressure 9 mmHg, Pre-Treatment 0.146): 0.50 μl/min/mmHg
- IOP 1 hour post-treatment OD(treated) ([2]; 0.4% solution in 0.4% HPMC pH 6.7, one drop right eye): 22 mmHg and 17 mmHg
- IOP 1 hour post-treatment OD(treated) ([2]; 0.4% suspension in NaCl/borate buffer, one drop right eye): 15 mmHg and 18 mmHg
- effect on IOP ([2]; cynomolgous monkeys, 500 μg, short-term 1-hour studies): decreased TOP
- kinetics of displacement of 3H-glibenclamide by tolbutamide [3]: same kinetics
- IOP spike that occurs following cataract surgery ([4]; 0.4%): prevents the IOP spike
- lowering of intraocular pressure ([4]; 0.4%, primary open angle glaucoma and exfoliative glaucoma patients): 25-50%
- IOP ([4]; Patient 1 Exfoliative Glaucoma of OD, OD, 2 hrs after one drop 0.4% solution, pre-treatment 48): 44 mm of Hg
- IOP ([4]; Patient 1 Exfoliative Glaucoma of OD, OD, 3 hrs after one drop 0.4% solution, pre-treatment 48): 32 mm of Hg
- IOP ([4]; Patient 1 Exfoliative Glaucoma of OD, OD, 4 hrs after one drop 0.4% solution, pre-treatment 48): 30 mm of Hg
- IOP ([4]; Patient 1 Exfoliative Glaucoma of OD, OD, 5 hrs after one drop 0.4% solution, pre-treatment 48): 30 mm of Hg
- IOP ([4]; Patient 1 Exfoliative Glaucoma of OD, OS, 2 hrs, pre-treatment 20): 18 mm of Hg
- IOP ([4]; Patient 1 Exfoliative Glaucoma of OD, OS, 3 hrs, pre-treatment 20): 14 mm of Hg
- IOP ([4]; Patient 1 Exfoliative Glaucoma of OD, OS, 4 hrs, pre-treatment 20): 14 mm of Hg
- IOP ([4]; Patient 1 Exfoliative Glaucoma of OD, OS, 5 hrs, pre-treatment 20): 14 mm of Hg
- IOP ([4]; Patient 2 Primary Open Angle Glaucoma, OD, 1 hr after one drop 0.4% solution, pre-treatment 34): 30 mm of Hg
- IOP ([4]; Patient 2 Primary Open Angle Glaucoma, OD, 3 hrs, pre-treatment 34): 26 mm of Hg
- IOP ([4]; Patient 2 Primary Open Angle Glaucoma, OD, 4 hrs, pre-treatment 34): 22 mm of Hg
- IOP ([4]; Patient 2 Primary Open Angle Glaucoma, OD, 5 hrs, pre-treatment 34): 22 mm of Hg
- IOP ([4]; Patient 2 Primary Open Angle Glaucoma, OS, 1 hr, pre-treatment 32): 27 mm of Hg
- IOP ([4]; Patient 2 Primary Open Angle Glaucoma, OS, 3 hrs, pre-treatment 32): 22 mm of Hg
- IOP ([4]; Patient 2 Primary Open Angle Glaucoma, OS, 4 hrs, pre-treatment 32): 20 mm of Hg
- IOP ([4]; Patient 2 Primary Open Angle Glaucoma, OS, 5 hrs, pre-treatment 32): 20 mm of Hg
- IOP ([4]; Patient 3 IOP Spike after Lens Extraction, OD, 2 hrs after one drop 0.4% solution, pre-treatment 30): 20 mm of Hg
- effect on IOP [4]: decreased IOP
- effect on IOP ([4]; listed as tolbutamide): decrease TOP significantly
